Laboratory results reported in article PMC11345766, “Computational Design of Pore-Forming Peptides with Potent Antimicrobial and Anticancer Activities” (Journal of Medicinal Chemistry, 2024).
Like-named read-outs stand apart in the source and are kept apart here. Ends that are not written are not given here.

Legend:
[1] = Calcein dye leakage assay from LUVs; format: biochemical; conditions: P:L 1:100; pH 7.4
Excerpt: To verify the pore-forming mechanism of action of the designed AMPs, we performed a calcein leakage assay. […] These lipid vesicles were used as simple mimics of bacterial membranes.[58] At the lowest tested peptide-to-lipid (P:L) ratio of 1:100 (mol/mol), three mutants (LP18, LP26, and LP40) caused >90% leakage, which was higher than the leakage caused by LP1 (87%). […] At the same concentration, LP23 caused leakage equivalent to that caused by LP1. Other mutants had lower leakage activity. At a higher P:L ratio of 1:50, all the abovementioned mutants caused 100% leakage, equivalent to that caused by LP1.
Pore-forming activity was tested using a dye leakage assay measuring the leakage of self-quenching fluorescent dye calcein from POPC:POPG (1:1 mol/mol) LUVs. DiD was mixed with lipids (1:500 mol/mol), and lipid film was created by evaporating chloroform, followed by 4 h of desiccation. Dried lipid film was dissolved in calcein buffer (35 mM calcein, 25 mM NaH2PO4·H2O and Na2HPO4·7H2O (3:7 mol/mol), 20 mM NaCl, and 1 mM EDTA). After 10 freeze–thaw cycles, the sample was extruded 50 times through a 100 nm pore size polycarbonate membrane filter. Free calcein in solution was removed using a HiTrap Desalting column. The concentrations of LUVs and peptides were adjusted to 0.02 and 0.1 mM, respectively, in PBS (25 mM NaH2PO4·H2O and Na2HPO4·7H2O (3:7 mol/mol), 100 mM NaCl, and 1 mM EDTA). The investigated P/L ratio was from 1:100 to 1:10 (mol/mol). Fluorescence intensity was measured using a HORIBA Scientific Jobin Yvon FluoroLog-3 Modular Spectrofluorometer (USA). Excitation and emission wavelengths were set to 495 and 520 nm, respectively. Triton X-100 10% caused 100% leakage used for normalization.

E. coli (TOP10) = assay: Broth microdilution antimicrobial susceptibility assay; format: cell-based, Escherichia coli; conditions: TOP10, 24 h
Excerpt: (§1) To test antimicrobial activity, all peptides were initially screened, in a broth microdilution assay, against Gram-negative Escherichia coli (TOP10) and Gram-positive Staphylococcus carnosus (CCM 4838T) Biosafety Level 1 (BSL-1) bacteria (Table 2). […] Four other mutants (LP3, LP26, LP36, and LP39) had higher activity than LP1 against E. coli, and two mutants (LP23 and LP32) had higher activity than LP1 against S. carnosus. Six mutants (LP29, LP30, LP31, LP33, LP40, and LP43) were not active against one or both bacteria, even at the highest concentration tested (50 μM).
(§2) Antimicrobial activity against E. coli TOP10 and S. carnosus CCM 4838T was tested using the broth microdilution assay. Bacteria were cultured in MHA Petri dish for 24 h, subcultured in an MHB test tube for 6 h at 37 °C, and diluted to 10^6 CFU/mL (OD600). […] Dilution series was prepared for concentrations 50 to 0.1 μM in a flat-bottom 96-well plate, inoculated with bacteria, and incubated for 24 h at 37 °C. Growth control wells were free from test compounds, and sterility control wells were free from bacteria. Bacterial MIC was determined as the lowest concentration of test compounds that inhibited visible growth of bacteria (i.e., no visible turbidity).

S. carnosus (CCM 4838T) = assay: microbe, parasite or virus in culture; format: cell-based, Staphylococcus carnosus; conditions: CCM 4838, 24 h; read-out: Antimicrobial activity (MIC) S. carnosus (CCM 4838T)
Excerpt: as §1, §2

[2] = system: murine macrophages RAW 264.7; conditions: 24 h
Procedure: (§3) Cytotoxicity against human immortalized keratinocytes HaCaT, human alveolar basal epithelial A549 (derived from adenocarcinoma), and murine macrophages RAW 264.7 was tested using MTT [3-(4,5-dimethylthiazol-2-yl)-2,5-diphenyltetrazolium bromide] assay. Cells were cultured in Dulbecco’s modified Eagle’s medium (DMEM) containing 4 mM glutamine for HaCaT, or 2 mM glutamine for A549 and RAW 264.7 cells, supplemented with 10% heat-inactivated fetal bovine serum (FBS) and antibiotics (0.1 mg/mL penicillin and streptomycin). Nonessential amino acids (NEAA) and sodium pyruvate (1 mM) were added for macrophages. Cell lines were grown in 25 and 75 cm^2 flasks at 37 °C in a humidified atmosphere with 5% CO2. Cells were suspended in DMEM, containing glutamine, NEAA, and sodium pyruvate (as described above), supplemented with 2% FBS, plated in 96-well plates at 4 × 10^4 cells/well, and incubated at 37 °C in a 5% CO2 atmosphere. After overnight incubation, the medium was replaced with fresh DMEM supplemented with peptides at different concentrations: 2, 4, 8, 16, 32, 64, and 128 μM. Negative controls were cells without peptides. After 24 h of peptide treatment at 37 °C in a 5% CO2 atmosphere, medium was replaced with Hank’s buffer (136 mM NaCl, 0.34 mM Na2HPO4, 0.44 mM KH2PO4, 5.4 mM KCl, 4.1 mM NaHCO3, supplemented with 5.5 mM D-glucose) containing 0.5 mg/mL MTT. Mitochondrial dehydrogenases converted soluble yellow dye MTT to insoluble purple formazan. After 4 h of incubation, acidified isopropanol was added to dissolve formazan crystals and measured for OD570 using Tecan microplate reader Infinite M200 (Salzburg, Austria).

E. coli (E1098) = conditions: E1098, 18 h
[3] = Procedure: as §3
[4] = remark: listed apart in the source
Procedure: as §3, with “After 24 h of peptide treatment at 37 °C in a 5% CO2 atmosphere, medium was replaced with Hank’s buffer (136 mM NaCl, 0.34 mM Na2HPO4, 0.44 mM KH2PO4, 5.4 mM KCl, 4.1 mM NaHCO3, supplemented with 5.5 mM D-glucose) containing 0.5 mg/mL MTT. Mitochondrial dehydrogenases converted soluble yellow dye MTT to insoluble purple formazan.” left out

[5] = remark: listed apart in the source
Procedure: as §3

[6] = system: normal B and T lymphocytes, granulocytes, and monocytes in whole blood; assay: Viability by flow cytometric staining in whole blood; format: cell-based, human; conditions: up to the highest tested concentration of 50 μM; 16 h
Procedure: Finally, we tested the effect of LP1 and LP40 on healthy primary cells in whole blood from a healthy donor (Figure S11).
The whole blood was seeded in a 96-well plate at 200 μL/well and treated with peptides for 16 h. The samples were then stained with anti-CD3 (FITC, Sony), anti-CD14 (APC-Cy7, Sony), and anti-CD19 (PE, Beckman Coulter) antibodies and incubated for 20 min at room temperature in the dark. The cells were then incubated with red blood cell lysis buffer for 10 min at room temperature, centrifuged, resuspended in PBS containing SYTOX Blue Dead Cell Stain (Thermo Fisher Scientific) and measured using a FACSVerse flow cytometer (BD Biosciences).

[7] = single intraperitoneal dose at 10 times the MIC
Procedure: Neutropenic mice were infected intramuscularly (in the right thigh) with 10^6 cells per mL of Gram-negative A. baumannii (ATCC 19606).
(a) Schematic of the deep thigh infection model in which bacteria are injected intramuscularly at day 4 and peptides are administered intraperitoneally also at day 4 to assess their anti-infective activity. Mice were euthanized 4 days postinfection (day 8). Each group consisted of six mice (n = 6), and the bacterial loads used to infect the mice derived from three different inocula. […] Polymyxin B (0.006 mg/kg) and levofloxacin (0.014 mg/kg) were used as the reference antibiotics. Statistical significance was done using one-way ANOVA followed by Dunnett’s test. Violin plots represent the median, upper quartile, and lower quartile. (c) Mouse weight was monitored to exclude possible toxic effects of the peptides.
Six-week-old female CD-1 mice (obtained from Charles River; stock number 18679700-022) underwent neutropenia induction via two intraperitoneal doses of cyclophosphamide (150 mg kg^–^1) administered with a 72 h interval. One day later, the mice received an intramuscular injection containing A. baumannii ATCC 19606 (10^6 CFU mL^–1) in the right thigh. Bacteria were cultured in LB broth, washed twice with PBS (pH 7.4), and resuspended to the desired concentration. […] Polymyxin B (0.006 mg/kg) and levofloxacin (0.014 mg/kg) were used as the reference antibiotics. Prior to each injection, mice were anesthetized with isoflurane and their respiratory rate and pedal reflexes were monitored. Subsequently, we observed the infection establishment and euthanized the mice. The infected area was excised 4 days postinfection (i.e., 8 days after the beginning of the experiment), homogenized using a bead beater for 20 min (25 Hz), and 10-fold serially diluted for CFU quantification on MacConkey agar plates. Each experimental group comprised three mice. All experiments were conducted blindly, and no animals were excluded from the analysis. Statistical significance was assessed using one-way ANOVA followed by Dunnett’s test on log10-transformed data to mitigate outlier effects; p values are reported for each group, with all groups compared to the untreated control group.

[8] = system: human red blood cells (HRBCs); conditions: read-out: Hemolysis toxicity (IC50); 1 h incubation
Procedure: To investigate the toxicity for normal human cells, all peptides were first screened against human red blood cells (HRBCs) using a hemolysis assay (Table 2 and Figure S4).
Hemolysis toxicity was tested against HRBCs. Blood samples, collected from the university hospital, were centrifuged twice at 700 × g and once at 1000 × g for 8 min at 4 °C to obtain erythrocyte pellets. Supernatants were always discarded, and pellets were resuspended in PBS (the same as the antimicrobial susceptibility assay). The final RBC suspension was 0.5% (v/v). Dilution series was prepared for concentrations 50 to 0.1 μM in a V-bottom 96-well plate, followed by the addition of RBC suspension. […] After 1 h of incubation at 37 °C, the well plate was centrifuged at 1000 × g for 10 min at 4 °C. The supernatant, collected in a flat-bottom well plate, was measured for OD415 using Tecan Microplate Reader Infinite F500.

[9] = system: MOLM-13, MEC-1 and SU-DHL-4 cancer cell lines; conditions: read-out: IC50 values over three cancer cell lines; after 24 h of incubation; physiological pH
Procedure: Anticancer activity of peptides against acute myeloid leukemia MOLM-13, chronic lymphocytic leukemia MEC-1, and diffuse large B-cell lymphoma SU-DHL-4 cell lines was tested using a WST cell viability assay. Cells were cultured in 75 cm^2 culture flasks at 37 °C in 5% CO2 according to the DSMZ recommendations before the start of the experiment. Then, the cells were seeded into 96-well plates in quadruplicate at 2.5 × 10^4 cells/well for SU-DHL-4, and 5 × 10^4 cells/well for MEC-1 and MOLM-13. Cells were treated with either peptides or PBS alone (negative control) for 24–72 h at 37 °C in 5% CO2. After incubation, cell viability was measured by WST-1 (Roche) according to the manufacturer’s instructions using Tecan microplate reader Infinite M200 PRO Plex and expressed as percentage compared to control.

[10] = system: HL-60, K-562, MCF-7 and HCT-116 cells; assay: Viability by flow cytometry DiOC6/7AAD staining, effect of pH and media; format: cell-based, human; conditions: 10 μM, 1 h; RPMI, DMEM, PBS at pH 8, 7, 6 and ∼7.6
Procedure: To investigate the effect of pH and media on anticancer activity, we further tested the peptides against four cell lines, HL-60, K-562, and MCF-7, and the colon cancer cells HCT-116, cultured in three different media, namely, RPMI, DMEM, and PBS, each adjusted to three different pH values 8, 7, and 6, and additionally one case without pH adjustment (∼7.6) (Figure 6c). To avoid pH changes due to the natural buffering of the CO2-bicarbonate system used in cell culture, the peptides were tested at a concentration of 10 μM for only 1 h, as the cell lysis effect was already apparent within 30 min of exposure (Figure S9d).
Effects of pH and culture medium on the anticancer activity of peptides against acute myeloid leukemia HL-60, chronic myeloid leukemia K-562, breast adenocarcinoma MCF-7, and colon cancer cells HCT-116 cultured in three different media RPMI (#21875034, Gibco), DMEM (#LM-D1110/500, Biosera), and PBS adjusted to three different pH values 8, 7, and 6, and a medium without pH adjustment (∼7.6), were tested using flow cytometry DiOC6/7AAD (3,3-dihexyloxacarbocyanine iodide/7-amino-actinomycin D) staining assay, as described previously.[102] Media pH was adjusted twice, i.e., 1 day before the experiment and immediately before the experiment. Medium was supplemented with 10% heat-inactivated FBS, glutamine, sodium pyruvate, and antibiotics (100 U/mL penicillin and 100 μg/mL streptomycin). […] To determine cell viability, cells were incubated with DiOC6 (Thermo Fisher Scientific) and 7AAD (Thermo Fisher Scientific) for 15 min at 37 °C and cell viability was measured using a BriCyte E6 flow cytometer (Mindray); viable cells were considered as DiOC6-positive and 7AAD-negative.
The effect of pH on peptide activity in cancer cells was evaluated by the multiway ANOVA followed by Tukey post hoc test. Regarding the comparison of the effect of the medium, we analyzed the data from Figure 6c by comparing RPMI medium and DMEM of the same pH, and statistical significance was assessed using the multiway ANOVA followed by Tukey post hoc test. […]

Compound	Calcein leakage (%) from LUVs at P:L 1:100 (mol/mol) [1]	MIC (E. coli (TOP10))	MIC (S. carnosus (CCM 4838T))	IC50 [2]	MIC (E. coli (E1098))	IC50 [3]	IC50 [4]	IC50 [5]	Effect on healthy primary cells in whole blood [6]	Change in mouse weight [7]	IC50 [8]	IC50 [9]	Activity against cancer cells (cell viability) as a function of pH and medium [10]
KKKKLKKILKKLFQFIQQLDQQLQDIKQQK-NH2 [LP35]	63.3 ± 6.7%	0.4 µM	0.4 µM	36 µM	0.5 µM	–	–	–	–	–	–	–	–
HHHHLKKILKKLFQFINQLDNQLQDIHHHH [LP40]	–	–	–	–	–	> 70 µM	> 70 µM	> 70 µM	no apparent deleterious effect	no significant change in mouse weight	–	–	–
KKKKIKKIIKKIFQFINQIDNQIQDIKQNK-NH2 [LP33]	28.3 ± 9.3%	50 µM	> 50 µM	–	–	< 2 µM	27 µM	> 128 µM	–	–	> 50 µM	–	–
CC[C@H](C)[C@H](NC(=O)CN)C(=O)NCC(=O)N[C@@H](C)C(=O)N[C@H](C(=O)N[C@@H](CC(C)C)C(=O)N[C@@H](CCCCN)C(=O)N[C@H](C(=O)N[C@@H](CC(C)C)C(=O)N[C@H](C(=O)N[C@H](C(=O)NCC(=O)N[C@@H](CC(C)C)C(=O)N1CCC[C@H]1C(=O)N[C@@H](C)C(=O)N[C@@H](CC(C)C)C(=O)N[C@H](C(=O)N[C@@H](CO)C(=O)N[C@@H](Cc1c[nH]c2ccccc12)C(=O)N[C@H](C(=O)N[C@@H](CCCCN)C(=O)N[C@@H](CCCNC(=N)N)C(=O)N[C@@H](CCCCN)C(=O)N[C@@H](CCCNC(=N)N)C(=O)N[C@@H](CCC(N)=O)C(=O)N[C@@H](CCC(N)=O)C(N)=O)[C@@H](C)CC)[C@@H](C)CC)[C@@H](C)O)[C@@H](C)O)C(C)C)C(C)C [Melittin, reference compound]	–	–	–	–	–	–	–	–	–	–	–	< 5 µM	did not allow cell growth
